Source: ChEMBL document CHEMBL5252509, “In depth analysis of kinase cross screening data to identify chemical starting points for inhibition of the Nek family of kinases” (Medchemcomm, 2018)

What was measured:
[1] = target: Serine/threonine-protein kinase Nek6 (Homo sapiens) (UniProt Q9HC98); experiment: Inhibition of NEK6 (unknown origin) at 10 uM relative to control
[2] = target: T1, Serine/threonine-protein kinase Nek9 (Homo sapiens) (UniProt Q8TD19); experiment: Inhibition of NEK9 (unknown origin) at 10 uM relative to control
T1 sequence (whole entry): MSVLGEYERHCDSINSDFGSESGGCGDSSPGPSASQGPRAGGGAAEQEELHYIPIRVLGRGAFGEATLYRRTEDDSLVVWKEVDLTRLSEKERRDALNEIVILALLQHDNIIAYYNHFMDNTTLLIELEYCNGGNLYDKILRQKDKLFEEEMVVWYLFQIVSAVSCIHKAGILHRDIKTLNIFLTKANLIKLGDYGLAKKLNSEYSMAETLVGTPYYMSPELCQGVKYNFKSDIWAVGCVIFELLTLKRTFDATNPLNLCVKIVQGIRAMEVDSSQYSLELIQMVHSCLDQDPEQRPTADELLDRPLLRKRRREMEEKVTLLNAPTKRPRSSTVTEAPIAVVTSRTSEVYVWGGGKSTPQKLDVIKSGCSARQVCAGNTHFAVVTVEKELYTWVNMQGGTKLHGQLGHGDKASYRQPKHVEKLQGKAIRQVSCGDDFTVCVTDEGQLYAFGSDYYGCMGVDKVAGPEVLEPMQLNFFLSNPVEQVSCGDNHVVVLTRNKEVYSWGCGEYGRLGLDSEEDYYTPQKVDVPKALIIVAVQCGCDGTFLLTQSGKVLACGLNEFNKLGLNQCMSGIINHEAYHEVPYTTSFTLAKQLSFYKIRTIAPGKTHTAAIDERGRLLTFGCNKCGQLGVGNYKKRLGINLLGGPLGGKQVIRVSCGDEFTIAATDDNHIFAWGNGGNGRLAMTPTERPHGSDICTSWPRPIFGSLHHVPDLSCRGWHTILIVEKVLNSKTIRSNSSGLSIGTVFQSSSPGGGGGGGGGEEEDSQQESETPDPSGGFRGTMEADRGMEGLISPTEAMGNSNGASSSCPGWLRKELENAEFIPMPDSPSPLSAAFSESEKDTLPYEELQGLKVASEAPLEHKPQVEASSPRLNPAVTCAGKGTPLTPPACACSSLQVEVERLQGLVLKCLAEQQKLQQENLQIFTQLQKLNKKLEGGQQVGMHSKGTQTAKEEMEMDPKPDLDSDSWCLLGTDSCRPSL

[3] = target: T2, Serine/threonine-protein kinase Nek3 (Homo sapiens) (UniProt P51956); experiment: Inhibition of NEK3 (unknown origin) at 1 uM relative to control
T2 sequence (whole entry): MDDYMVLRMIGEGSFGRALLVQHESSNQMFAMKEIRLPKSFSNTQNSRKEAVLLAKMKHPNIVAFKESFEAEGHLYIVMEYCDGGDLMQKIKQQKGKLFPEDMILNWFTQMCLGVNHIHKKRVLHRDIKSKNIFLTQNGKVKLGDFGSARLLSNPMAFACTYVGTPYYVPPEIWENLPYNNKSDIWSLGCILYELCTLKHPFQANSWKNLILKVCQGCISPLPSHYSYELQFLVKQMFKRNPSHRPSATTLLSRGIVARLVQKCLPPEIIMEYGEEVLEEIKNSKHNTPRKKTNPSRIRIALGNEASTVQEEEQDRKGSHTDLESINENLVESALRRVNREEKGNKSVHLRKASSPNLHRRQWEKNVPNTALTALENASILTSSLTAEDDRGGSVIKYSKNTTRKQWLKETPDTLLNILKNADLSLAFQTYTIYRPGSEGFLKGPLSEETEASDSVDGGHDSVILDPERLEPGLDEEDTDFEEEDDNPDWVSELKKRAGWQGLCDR

[4] = target: T3, Serine/threonine-protein kinase Nek10 (Homo sapiens) (UniProt Q6ZWH5); experiment: Inhibition of NEK10 (unknown origin) at 1 uM relative to control
T3 sequence (whole entry): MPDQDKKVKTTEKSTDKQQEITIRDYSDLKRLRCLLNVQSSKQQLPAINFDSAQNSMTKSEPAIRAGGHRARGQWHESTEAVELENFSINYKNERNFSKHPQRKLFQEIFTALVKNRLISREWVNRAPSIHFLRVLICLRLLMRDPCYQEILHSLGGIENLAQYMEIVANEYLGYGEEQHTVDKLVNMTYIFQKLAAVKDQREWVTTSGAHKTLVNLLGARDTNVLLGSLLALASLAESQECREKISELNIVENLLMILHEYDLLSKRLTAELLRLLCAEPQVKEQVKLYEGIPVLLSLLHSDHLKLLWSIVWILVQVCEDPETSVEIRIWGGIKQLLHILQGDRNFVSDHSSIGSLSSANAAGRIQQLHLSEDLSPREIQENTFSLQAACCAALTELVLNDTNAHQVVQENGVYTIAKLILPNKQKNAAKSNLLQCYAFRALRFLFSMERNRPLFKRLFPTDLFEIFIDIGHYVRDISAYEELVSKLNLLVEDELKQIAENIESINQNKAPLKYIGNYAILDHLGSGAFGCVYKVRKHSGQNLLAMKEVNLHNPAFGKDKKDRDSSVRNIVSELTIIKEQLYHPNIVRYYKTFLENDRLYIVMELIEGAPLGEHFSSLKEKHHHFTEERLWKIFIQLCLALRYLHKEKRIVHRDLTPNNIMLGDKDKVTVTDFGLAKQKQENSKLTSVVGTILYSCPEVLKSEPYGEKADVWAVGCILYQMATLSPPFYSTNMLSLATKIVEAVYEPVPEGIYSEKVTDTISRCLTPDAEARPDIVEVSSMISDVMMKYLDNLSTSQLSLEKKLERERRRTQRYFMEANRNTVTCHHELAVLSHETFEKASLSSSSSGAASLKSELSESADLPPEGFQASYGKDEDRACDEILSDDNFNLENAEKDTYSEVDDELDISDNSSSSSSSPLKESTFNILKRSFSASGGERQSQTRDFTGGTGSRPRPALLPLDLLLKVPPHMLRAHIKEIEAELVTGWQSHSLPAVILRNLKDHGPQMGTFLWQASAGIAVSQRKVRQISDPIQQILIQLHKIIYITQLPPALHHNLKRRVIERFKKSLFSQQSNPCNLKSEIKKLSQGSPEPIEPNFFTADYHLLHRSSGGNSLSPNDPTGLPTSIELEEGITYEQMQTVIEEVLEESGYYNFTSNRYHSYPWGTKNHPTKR

Serine/threonine-protein kinase Nek6 (Homo sapiens), sequence (Q9HC98 whole entry): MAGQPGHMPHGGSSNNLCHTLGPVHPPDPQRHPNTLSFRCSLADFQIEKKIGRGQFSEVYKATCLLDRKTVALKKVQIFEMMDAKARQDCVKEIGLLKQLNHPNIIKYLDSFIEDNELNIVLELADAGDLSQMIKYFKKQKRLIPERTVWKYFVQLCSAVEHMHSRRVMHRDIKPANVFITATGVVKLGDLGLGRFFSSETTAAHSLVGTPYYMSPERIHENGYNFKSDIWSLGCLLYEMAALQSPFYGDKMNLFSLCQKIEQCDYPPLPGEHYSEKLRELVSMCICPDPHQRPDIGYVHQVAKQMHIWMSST

| Compound | % control [1] [%] | % control [2] [%] | inhibition [3] [%] | inhibition [4] [%] |
| --- | --- | --- | --- | --- |
| Fc1cc(-c2cc[nH]/c(=N/c3ccc(-n4cnc(N5CCOCC5)n4)cc3)n2)cc(N2CCOCC2)c1 | 76 | 63 | – | – |
| Cc1ccc(CC(=O)N2CCc3cc(-c4cn(C)c5ncnc(N)c45)ccc32)cc1 | – | – | 7 | 0 |
| O=c1[nH]ccc2nc(N[C@@H]3CCCNC3)nc(Nc3ccc(S(=O)(=O)N4CCOCC4)cc3)c12 | – | – | 11 | 4.4 |
| Nc1ncc(-c2cn[nH]c2)c2scc(-c3ccc4c(c3)CCN4C(=O)Cc3ccccc3)c12 | – | – | 0 | 22 |
| CN(C)C/C=C/C(=O)Nc1cccc(C(=O)Nc2ccc(Nc3nccc(-c4cccnc4)n3)cc2)c1 | 17 | 48 | – | – |
| COc1ccc(C2=C(Nc3cccc(C(=O)O)c3)C(=O)NC2=O)cc1 | – | – | 31 | 2 |
| COc1cccc(CC(=O)N2CCc3cc(-c4cn(C)c5ncnc(N)c45)ccc32)c1 | – | – | 4 | 7 |
| CC(C)c1nc(-c2cccc(NS(=O)(=O)c3c(F)cccc3F)c2F)c(-c2ccnc(Nc3ccc(N4CCOCC4)nc3)n2)s1 | – | – | 99 | 100 |
| Cn1cc(-c2ccc3c(c2)CCN3C(=O)Cc2cccc(F)c2)c2c(N)ncnc21 | – | – | 11 | 22 |
| NCCNS(=O)(=O)c1ccc(-c2ccnc3[nH]ccc23)cc1 | – | – | 14 | 69 |
| Cn1cc(-c2cnc(N)c3c(-c4ccc5c(c4)CCN5C(=O)Cc4ccccc4)csc23)cn1 | – | – | 1 | 22 |
| CN(C)C/C=C/C(=O)Nc1cccc(C(=O)Nc2ccc(Nc3nccc(-c4c(-c5ccccc5)nn5ccccc45)n3)cc2)c1 | 100 | 100 | – | – |
| CN(C)C/C=C/C(=O)Nc1cccc(C(=O)Nc2ccc(Nc3nccc(/C(C#N)=C4\Nc5ccccc5S4)n3)cc2)c1 | 100 | 63 | – | – |
| CN(C)CCNS(=O)(=O)c1ccc(-c2ccnc3[nH]ccc23)cc1 | – | – | 0 | 17 |
| Cc1ccc(NC(=O)c2ccc(NC(=O)/C=C/CN(C)C)cc2)cc1Nc1nccc(-c2cccnc2)n1 | 44 | 100 | – | – |
| Cn1cc(-c2ccc3c(c2)CCN3C(=O)Cc2ccccc2Cl)c2c(N)ncnc21 | – | – | 0 | 0 |
| COc1cccc(C2=C(Nc3ccc(Cl)c(C(=O)O)c3)C(=O)NC2=O)c1 | – | – | 7 | 73 |
| O=C1NC(=O)/C(=C/c2ccc3nccc(-c4ccncc4)c3c2)S1 | 81 | 95 | – | – |
| Cn1cc(-c2ccc3c(c2)CCN3C(=O)Cc2cccc(C(F)(F)F)c2)c2c(N)ncnc21 | – | – | 0 | 18 |

| Compound | % control [1] [%] | % control [2] [%] | inhibition [3] [%] | inhibition [4] [%] |
| --- | --- | --- | --- | --- |
| Nc1nccc2scc(-c3ccc4c(c3)CCN4C(=O)Cc3cc(F)ccc3F)c12 | – | – | 0 | 12 |
| O=C1NC(=O)C(c2ccccc2Cl)=C1Nc1cccc(Cl)c1 | – | – | 56 | 51 |
| Cc1cc(NC(=O)c2cccc(NC(=O)/C=C/CN(C)C)c2)ccc1Nc1nccc(-c2cccnc2)n1 | 100 | 100 | – | – |
| COc1ccc(Nc2ncc(C#N)c(Nc3ccccc3C(N)=O)n2)cc1N1CCN(C)CC1 | – | – | 6.5 | 5.9 |
| Cn1cc(-c2ccc3c(c2)CCN3C(=O)Cc2cc(F)cc(C(F)(F)F)c2)c2c(N)ncnc21 | – | – | 0 | 6 |
| CS(=O)(=O)Nc1ccc(-c2ccnc3[nH]ccc23)cc1 | – | – | 4 | 71 |
| CC(C)c1nc(-c2cccc(NS(=O)(=O)c3ccccc3)c2)c(-c2ccnc(Nc3ccc4c(c3)CN(C)CC4)n2)s1 | – | – | 73 | 100 |
| COc1cccc(C2=C(Nc3cccc(O)c3)C(=O)NC2=O)c1 | – | – | 19 | 67 |
| Nc1ncc(-c2cccnc2)c2scc(-c3ccc4c(c3)CCN4C(=O)Cc3ccccc3)c12 | – | – | 1 | 14 |
| Cc1ccccc1CC(=O)N1CCc2cc(-c3cn(C)c4ncnc(N)c34)ccc21 | – | – | 0 | 0 |
| COc1cccc(C2=C(Nc3cccc(Cl)c3)C(=O)NC2=O)c1 | – | – | 5 | 73 |
| Cn1cc(-c2ccc3c(c2)CCN3C(=O)Cc2cc(F)cc(F)c2F)c2c(N)ncnc21 | – | – | 0 | 10 |
| Nc1nccc2scc(-c3ccc4c(c3)CCN4C(=O)Cc3ccccc3)c12 | – | – | 10 | 9 |
| COc1cc(Nc2ncc3c(C)nc(-c4cc5ccccc5[nH]4)n3n2)cc(OC)c1OC | – | – | 89 | 0 |
| CC(C)Oc1ccc2c(-c3ccnc(Nc4ccc(N5CCN(C)CC5)cc4)n3)cnn2n1 | – | – | 1.5 | 2.4 |
| c1ccc(-c2ccnc3[nH]ccc23)cc1 | – | – | 19 | 30 |
| O=S(=O)(c1ccc(-c2ccnc3[nH]ccc23)cc1)N1CCCC1 | – | – | 16 | 15 |
| CN(C)C/C=C/C(=O)Nc1ccc(C(=O)Nc2cccc(Nc3nccc(-c4cccnc4)n3)c2)cc1 | 2.8 | 22 | – | – |
| Cn1cc(-c2ccc3c(c2)CCN3C(=O)Cc2cccc(Cl)c2)c2c(N)ncnc21 | – | – | 1 | 18 |
